By inhibition is commonly meant the change of the read-out against control, counted positive when it falls.

The assay deals with T1, hTRPV3 (Homo sapiens, UniProt Q8NET8).
T1 construct: expressed in transfected cells; host or cells: HEK-293
T1 sequence (Q8NET8 1-790): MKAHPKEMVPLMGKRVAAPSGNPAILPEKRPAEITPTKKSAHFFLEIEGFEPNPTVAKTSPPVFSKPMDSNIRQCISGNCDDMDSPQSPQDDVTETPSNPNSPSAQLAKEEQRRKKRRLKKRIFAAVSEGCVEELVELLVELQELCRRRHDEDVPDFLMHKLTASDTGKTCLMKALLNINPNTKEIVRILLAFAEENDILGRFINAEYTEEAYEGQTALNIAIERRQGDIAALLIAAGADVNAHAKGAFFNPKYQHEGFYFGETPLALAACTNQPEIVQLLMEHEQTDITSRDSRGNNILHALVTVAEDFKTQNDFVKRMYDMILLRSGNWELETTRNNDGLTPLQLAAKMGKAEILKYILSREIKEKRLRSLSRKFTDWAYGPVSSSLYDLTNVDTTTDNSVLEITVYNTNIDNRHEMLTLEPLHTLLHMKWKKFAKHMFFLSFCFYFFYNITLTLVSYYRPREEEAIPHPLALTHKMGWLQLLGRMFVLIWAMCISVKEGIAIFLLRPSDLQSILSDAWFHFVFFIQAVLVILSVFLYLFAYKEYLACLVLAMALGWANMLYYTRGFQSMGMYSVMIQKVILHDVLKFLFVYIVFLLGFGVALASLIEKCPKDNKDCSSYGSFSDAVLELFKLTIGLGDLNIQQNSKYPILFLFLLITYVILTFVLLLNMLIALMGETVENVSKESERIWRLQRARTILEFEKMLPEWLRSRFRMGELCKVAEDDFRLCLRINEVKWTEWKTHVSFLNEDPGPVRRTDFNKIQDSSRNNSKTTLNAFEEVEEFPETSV
As to the kind of experiment: Whole cell patch clamp inhibition rate test on HEK-293 cells instantaneously expressing TRPV3. It is filed as cell-based. Particulars: HEK293; hTRPV3, single concentration 0.3 μM. As to the method: In this study, HEK-293 cells instantaneously expressing TRPV3 were used for experimental detection.
The operation steps are as follows:
The cells were cultured in DMEM medium containing 10% fetal bovine serum at a temperature of 37° C. and a carbon dioxide concentration of 5%.
Day 1: Cells were inoculated into a 6-well plate with 5×10^5 cells per well.
Day 2: Transfection was performed using Lipofectamine 3000 transfection reagent, with a plasmid to transfection reagent ratio of 1 μg: 2 μL. The total amount of plasmid used per well was 3 μg. Specifically, two sterile centrifuge tubes were taken and 100 μL Opti-MEM was added to each tube. 6 μL Lipofectamine 3000 was added to one tube and mixed well; and 3 μg plasmid was added to another tube and mixed well, and then 6 μL P3000 was added and mixed well; Subsequently, the diluted plasmid DNA was added to diluted Lipofectamine 3000 and incubated at room temperature for 10-15 min. DNA liposome complex was dropped into the cells, shaked gently and mixed well, and then cultured in an incubator. The liquid was changed after 4 to 6 h.
Day 3: The cells were digested and seeded into 24 well plates with pre-placed cover slides, with 8×10^3 cells per well.
Day 4: Patch clamp testing was performed.
The voltage stimulation protocol for recording TRPV3 current using whole cell patch clamp is as follows: after forming a whole cell seal, a cell membrane voltage clamp was set at −80 mV. Firstly, a membrane potential was recorded at 0 mV, and then a voltage was command to start from −100 mV, to depolarize in the form of Ramp to 100 mV within 100 ms, and finally restore to 0 mV. Data collection was repeated every 5 seconds to observe the inhibitory effect of pharmaceutical on peak current. Experimental data was collected by EPC 10 amplifier (HEKA) and stored in PatchMaster (HEKA) software.
A microelectrode puller was used to pull the capillary glass tube into a recording electrode. The electrode filled with intracellular fluid was inserted into a microelectrode holder, and a microelectrode manipulator was operated under an inverted microscope to immerse the electrode in extracellular fluid and an electrode resistance (Rpip) was recorded. The electrode was brought into contact with the cell surface and a negative pressure suction was applied to form a high resistance seal (GΩ). At this point, a fast capacitance compensation was performed, and negative pressure was continued to apply in order to break the cell membrane, so that a whole cell recording mode was formed. Then, a slow capacitance compensation was performed and experimental parameters such as film capacitance (Cm) and series resistance (Rs) were recorded. No leakage compensation was provided.
When the TRPV3 current recorded by the whole cell had stabilized, administration was started. Each pharmaceutical concentration acted for 5 minutes (or until the current stabilized) before detecting the next concentration. A plurality of concentrations was tested for each test compound. A cover glass covered with cells was placed in a recording bath under an inverted microscope. A blank control extracellular solution and a working fluid for the compound to be tested sequentially flowed through the recording bath from low concentration to high concentration using gravity perfusion to act on the cells. Liquid exchange was performed using a peristaltic pump during recording. The current detected by each cell in the extracellular fluid without the compound served as its own control group. Each concentration was independently tested twice using at least two cells. All electrophysiological tests were conducted at room temperature.
Background: In patch-clamp work, channel activity is measured electrically.
`COCc1cccc(C(=O)N2CCC3(CC(O)c4cc(-c5ccccc5C5CC5)ccc43)C2)n1` (stereo not drawn) [Example 47, (5-(2-cyclopropylphenyl)-3-hydroxy-2,3-dihydrospiro[indene-1,3′-pyrrolidine]-1′-yl)(6-(methoxymethyl)pyridin-2-yl) ketone] had an inhibition at 0.3 µM below 25%.
The value for `CNc1cncc(C(=O)N2CCC3(CC(O)c4cc(-c5ccccc5C5CC5)ccc43)C2)n1` (stereo not drawn) [Example 48, (5-(2-cyclopropylphenyl)-3-hydroxy-2,3-dihydrospiro[indene-1,3′-pyrrolidine]-1′-yl)(6-(methylamino)pyrazin-2-yl) ketone] was 70 to 100%; that for `O=C(c1ccc(C(F)(F)F)cn1)N1CCC2(CC(O)c3cc(-c4ccccc4C4CC4)ccc32)C1` (stereo not drawn) [Example 50, (5-(2-cyclopropylphenyl)-3-hydroxy-2,3-dihydrospiro[indene-1,3′-pyrrolidine]-1′-yl)(5-(trifluoromethyl)pyridin-2-yl) ketone] was 70 to 100%; that for `O=C(c1cccc(Cl)n1)N1CCC2(CC(O)c3cc(-c4ccccc4C4CC4)ccc32)C1` (stereo not drawn) [Example 51, (6-chloropyridin-2-yl)(5-(2-cyclopropylphenyl)-3-hydroxy-2,3-dihydrospiro[indene-1,3′-pyrrolidine]-1′-yl)ketone] was 70 to 100%.
`O=C(c1ncccc1Cl)N1CCC2(CC(O)c3cc(-c4ccccc4C4CC4)ccc32)C1` (stereo not drawn) [Example 52, (3-chloropyridin-2-yl)(5-(2-cyclopropylphenyl)-3-hydroxy-2,3-dihydrospiro[indene-1,3′-pyrrolidine]-1′-yl)ketone] yielded an inhibition at 0.3 µM of 50 to 70%.
The value for `Cc1cccc(C(=O)N2CCC3(CC(O)c4cc(-c5ccccc5C5CC5)ccc43)C2)n1` (stereo not drawn) [Example 53, (5-(2-cyclopropylphenyl)-3-hydroxy-2,3-dihydrospiro[indene-1,3′-pyrrolidine]-1′-yl)(6-methylpyridin-2-yl)ketone] was 70 to 100%; that for `O=C(c1ccc(F)c(Cl)n1)N1CCC2(CC(O)c3cc(-c4ccccc4C4CC4)ccc32)C1` (stereo not drawn) [Example 54, (6-chloro-5-fluoropyridin-2-yl)(5-(2-cyclopropylphenyl)-3-hydroxy-2,3-dihydrospiro[indene-1,3′-pyrrolidine]-1′-yl)ketone] was 70 to 100%; that for `COc1ncnc(OC)c1C(=O)N1CCC2(CC(O)c3cc(-c4ccccc4C4CC4)ccc32)C1` (stereo not drawn) [Example 56, (5-(2-cyclopropylphenyl)-3-hydroxy-2,3-dihydrospiro[indene-1,3′-pyrrolidine]-1′-yl)(4,6-dimethoxypyrimidin-5-yl)ketone] was below 25%.
`CC(C)c1ccccc1-c1ccc2c(c1)C(O)CC21CCN(C(=O)c2ccn3nccc3n2)C1` (stereo not drawn) [Example 57, (3-hydroxy-5-(2-isopropylphenyl)-2,3-dihydrospiro[indene-1,3′-pyrrolidine]-1′-yl)(pyrazolo[1,5-a]pyrimidin-5-yl) ketone] had an inhibition at 0.3 µM of 50 to 70%.
`CC(C)c1ccccc1-c1ccc2c(c1)C(O)CC21CCN(C(=O)c2ccc(Cl)cn2)C1` (stereo not drawn) [Example 58, (5-chloropyridin-2-yl)(3-hydroxy-5-(2-isopropylphenyl)-2,3-dihydrospiro[indene-1,3′-pyrrolidine]-1′-yl)ketone] yielded an inhibition at 0.3 µM of 70 to 100%.
`CC(C)c1ccccc1-c1ccc2c(c1)C(O)CC21CCN(C(=O)c2ccccn2)C1` (stereo not drawn) [Example 60, (3-hydroxy-5-(2-isopropylphenyl)-2,3-dihydrospiro[indene-1,3′-pyrrolidine]-1′-yl)(pyridin-2-yl)ketone] had an inhibition at 0.3 µM of 70 to 100%.
With `CC(C)c1ccccc1-c1ccc2c(c1)C(O)CC21CCN(C(=O)c2ccc(F)cc2)C1` (stereo not drawn) [Example 61, (4-fluorophenyl)(3-hydroxy-5-(2-isopropylphenyl)-2,3-dihydrospiro[indene-1,3′-pyrrolidine]-1′-yl)ketone], the inhibition at 0.3 µM was in the range of 70 to 100%.
The value for `COc1cnc(C(=O)N2CCC3(CC(O)c4cc(-c5ccccc5C(C)C)ccc43)C2)cn1` (stereo not drawn) [Example 63, (3-hydroxy-5-(2-isopropylphenyl)-2,3-dihydrospiro[indene-1,3′-pyrrolidine]-1′-yl)(5-methoxypyrazin-2-yl) ketone] was 70 to 100%; that for `Cc1cnc(C(=O)N2CCC3(CC(O)c4cc(-c5ccccc5C(C)C)ccc43)C2)cn1` (stereo not drawn) [Example 65, (3-hydroxy-5-(2-isopropylphenyl)-2,3-dihydrospiro[indene-1,3′-pyrrolidine]-1′-yl)(5-methylpyrazin-2-yl)ketone] was 70 to 100%.
The value for `CC(C)c1ccccc1-c1ccc2c(c1)C(O)CC21CCN(C(=O)c2ncccn2)C1` (stereo not drawn) [Example 66, (3-hydroxy-5-(2-isopropylphenyl)-2,3-dihydrospiro[indene-1,3′-pyrrolidine]-1′-yl)(pyrimidin-2-yl)ketone] was 25 to 50%; that for `CC(C)c1ccccc1-c1ccc2c(c1)C(O)CC21CCN(C(=O)c2ccncn2)C1` (stereo not drawn) [Example 67, (3-hydroxy-5-(2-isopropylphenyl)-2,3-dihydrospiro[indene-1,3′-pyrrolidine]-1′-yl)(pyrimidin-4-yl)ketone] was 50 to 70%; that for `COCc1cnc(C(=O)N2CCC3(CC(O)c4cc(-c5ccccc5C(C)C)ccc43)C2)cn1` (stereo not drawn) [Example 69, (3-hydroxy-5-(2-isopropylphenyl)-2,3-dihydrospiro[indene-1,3′-pyrrolidine]-1′-yl)(5-(methoxymethyl)pyrazin-2-yl)ketone] was below 25%.
Turning to `CC(C)c1ccccc1-c1ccc2c(c1)C(O)CC21CCN(C(=O)c2cocn2)C1` (stereo not drawn) [Example 70, (3-hydroxy-5-(2-isopropylphenyl)-2,3-dihydrospiro[indene-1,3′-pyrrolidine]-1′-yl)(oxazol-4-yl)ketone], the inhibition at 0.3 µM lay in the range of 50 to 70%.
Then `CC(C)c1ccccc1-c1ccc2c(c1)C(O)CC21CCN(C(=O)c2cc[nH]n2)C1` (stereo not drawn) [Example 71, (3-hydroxy-5-(2-isopropylphenyl)-2,3-dihydrospiro[indene-1,3′-pyrrolidine]-1′-yl)(1H-pyrazol-3-yl)ketone], with 50 to 70%; and `CC(C)c1ccccc1-c1ccc2c(c1)C(O)CC21CCN(C(=O)C2CCN(C)CC2)C1` (stereo not drawn) [Example 74, (3-hydroxy-5-(2-isopropylphenyl)-2,3-dihydrospiro[indene-1,3′-pyrrolidine]-1′-yl)(1-methylpiperidin-4-yl) ketone], with below 25%.
The value for `CC(C)c1ccccc1-c1ccc2c(c1)C(O)CC21CCN(C(=O)c2ccc3cn[nH]c3n2)C1` (stereo not drawn) [Example 75, (3-hydroxy-5-(2-isopropylphenyl)-2,3-dihydrospiro[indene-1,3′-pyrrolidine]-1′-yl)(1Hpyrazolo[3,4-b]pyridin-6-yl) ketone] was 25 to 50%.

The values above are taken from patent publication US20260174786A1, “A NITROGEN-CONTAINING SPIROCYCLIC COMPOUND, PHARMACEUTICAL COMPOSITION AND USE THEREOF” (Prime Gene Therapeutics Co., Ltd., priority 2022, published 2026).
